Measured values reported in ChEMBL document CHEMBL1201862, “PubChem BioAssay data set” (2004).
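Compound exposure: 48 hours, 5 concentrations, 96-well plates. GI50: concentration for 50% inhibition of growth.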 Activity calls are given as the source filed them. No stated cut-off is given here; in the data, active = GI50 up to about 1.1 µM and inactive = higher. Where a SMILES comes first, the peptide text is derived from it. [ ]: non-standard residue; d: D form. The star is where a group is joined. NMeF = CN[C@@H](Cc1ccccc1)C(=O)O; NMeV = CN[C@H](C(=O)O)C(C)C; Boc = CC(C)(C)OC(=O)*; OBn = c1ccc(CO*)cc1

Key:
Assay in all cases: inhibition of tumour cell growth, NCI panel, 48 h
MDA-N = tested on: MDA-N
HL-60 = tested on: HL-60
EKVX = tested on: EKVX
NCI-H460 = tested on: NCI-H460
Malme-3M = tested on: Malme-3M
NCI-H522 = tested on: NCI-H522
SW-620 = tested on: SW-620
RPMI-8226 = tested on: RPMI-8226
TK-10 = tested on: TK-10
SNB-19 = tested on: SNB-19
RXF 393 = tested on: RXF 393
NCI-H226 = tested on: NCI-H226
MDA-MB-231 = tested on: MDA-MB-231
OVCAR-5 = tested on: OVCAR-5
M14 = tested on: M14
HCC 2998 = tested on: HCC 2998
SF-539 = tested on: SF-539
MCF7 = tested on: MCF7
SR = tested on: SR
HOP-92 = tested on: HOP-92

Structure (SMILES)	GI50 (MDA-N)	GI50 (HL-60)	GI50 (EKVX)	GI50 (NCI-H460)	GI50 (Malme-3M)	GI50 (NCI-H522)	GI50 (SW-620)	GI50 (RPMI-8226)	GI50 (TK-10)	GI50 (SNB-19)	GI50 (RXF 393)	GI50 (NCI-H226)	GI50 (MDA-MB-231)	GI50 (OVCAR-5)	GI50 (M14)	GI50 (HCC 2998)	GI50 (SF-539)	GI50 (MCF7)	GI50 (SR)	GI50 (HOP-92)
O=C(O)/C=C(/CC(=O)O)C(=O)O	22.1 µM (inactive)	21 µM (inactive)	19.3 µM (inactive)	35.2 µM (inactive)	18.7 µM (inactive)	17.9 µM (inactive)	19 µM (inactive)	14.9 µM (inactive)	23.2 µM (inactive)	22.2 µM (inactive)	16 µM (inactive)	21.6 µM (inactive)	21.3 µM (inactive)	38.4 µM (inactive)	18.7 µM (inactive)	30.8 µM (inactive)	12.3 µM (inactive)	19.3 µM (inactive)		
CNc1ccccc1S(=O)(=O)c1ccccc1[N+](=O)[O-]		40 µM (inactive)	> 100 µM (inactive)	58.7 µM (inactive)	99.8 µM (inactive)	26 µM (inactive)	> 100 µM (inactive)	> 100 µM (inactive)	> 100 µM (inactive)	74 µM (inactive)	> 100 µM (inactive)	65.6 µM (inactive)	> 100 µM (inactive)	> 100 µM (inactive)	52.7 µM (inactive)	> 100 µM (inactive)	> 100 µM (inactive)	85.1 µM (inactive)	> 100 µM (inactive)	
CCCC(=O)OCC1OC(n2cc(F)c(=O)[nH]c2=O)C(F)C1O (stereo not given)	14.9 µM (inactive)	> 100 µM (inactive)	> 71.4 µM (inactive)	2.86 µM (inactive)	> 80 µM (inactive)	> 75 µM (inactive)	> 100 µM (inactive)	6.3 µM (inactive)	> 100 µM (inactive)	78.5 µM (inactive)	> 100 µM (inactive)	99.3 µM (inactive)	38.1 µM (inactive)	> 100 µM (inactive)	18.8 µM (inactive)	> 100 µM (inactive)	0.774 µM (active)	0.456 µM (active)		> 100 µM (inactive)
Cc1ccc(S(=O)(=O)Nn2c(O)c(C#N)c(-c3ccc(Cl)cc3)c(C#N)c2=O)cc1	> 100 µM (inactive)	> 100 µM (inactive)	> 100 µM (inactive)	> 100 µM (inactive)	> 100 µM (inactive)	> 100 µM (inactive)	> 100 µM (inactive)	> 100 µM (inactive)	> 100 µM (inactive)	> 100 µM (inactive)	> 100 µM (inactive)	> 100 µM (inactive)	> 100 µM (inactive)	> 100 µM (inactive)	> 100 µM (inactive)	> 100 µM (inactive)	> 100 µM (inactive)	> 100 µM (inactive)		> 100 µM (inactive)
O=C1C=C(c2ccccc2)OC1C1Sc2ccccc2NC1=O (stereo not given)	4.48 µM (inactive)	3.15 µM (inactive)	14 µM (inactive)	2.74 µM (inactive)	24.3 µM (inactive)	6.85 µM (inactive)	9.23 µM (inactive)	3.66 µM (inactive)	9.23 µM (inactive)	4.08 µM (inactive)	14 µM (inactive)	14.5 µM (inactive)	10.9 µM (inactive)	13.8 µM (inactive)	8.67 µM (inactive)	5.69 µM (inactive)	5.38 µM (inactive)	3.81 µM (inactive)		9.68 µM (inactive)
O=C(NN1C(=O)C(Cl)C1c1ccc(Cl)cc1)c1c(Cl)c(Cl)c(Cl)c(Cl)c1-c1nc2ccccc2[nH]1 (stereo not given)		25.4 µM (inactive)	20.7 µM (inactive)	16.7 µM (inactive)	21.1 µM (inactive)	13.8 µM (inactive)	23.1 µM (inactive)			36.1 µM (inactive)	2.23 µM (inactive)	22.1 µM (inactive)		37.2 µM (inactive)	20.8 µM (inactive)	15.1 µM (inactive)	32.4 µM (inactive)	12.7 µM (inactive)	16.6 µM (inactive)	13.5 µM (inactive)
Oc1cccc(-c2cc(=S)ss2)c1		15 µM (inactive)	16.1 µM (inactive)	17.1 µM (inactive)	17.6 µM (inactive)	6.89 µM (inactive)	18.5 µM (inactive)	2.24 µM (inactive)	18.5 µM (inactive)	19.7 µM (inactive)	18 µM (inactive)	18 µM (inactive)	14.3 µM (inactive)	15.9 µM (inactive)	20.6 µM (inactive)	17.7 µM (inactive)	19.5 µM (inactive)	12.8 µM (inactive)	2.76 µM (inactive)	13.9 µM (inactive)
N#CCCN(C1=NN(C(=O)CC(=O)Nc2ccc(Cl)cc2)C(c2ccccc2)C1)c1ccc(Cl)cc1 (stereo not given)		> 100 µM (inactive)	> 100 µM (inactive)	> 100 µM (inactive)	> 100 µM (inactive)	> 100 µM (inactive)	> 100 µM (inactive)	> 100 µM (inactive)	> 100 µM (inactive)	> 100 µM (inactive)	> 100 µM (inactive)	> 100 µM (inactive)		> 100 µM (inactive)	> 100 µM (inactive)	> 100 µM (inactive)	> 100 µM (inactive)		> 100 µM (inactive)	> 100 µM (inactive)
OC1(C(F)(F)F)OCCN=C1C(F)(F)F (stereo not given)	> 100 µM (inactive)	37.7 µM (inactive)	> 100 µM (inactive)	> 100 µM (inactive)	24.8 µM (inactive)	40.4 µM (inactive)	56.2 µM (inactive)	> 100 µM (inactive)	> 100 µM (inactive)	> 100 µM (inactive)	> 100 µM (inactive)	> 100 µM (inactive)	> 100 µM (inactive)	> 100 µM (inactive)	> 100 µM (inactive)	> 100 µM (inactive)		> 100 µM (inactive)		60.5 µM (inactive)
CCOC(=O)N1CCC2(CC1)C[C@@](C(C)=O)(c1ccccc1)C(C)O2 (stereo not given in full)	85.1 µM (inactive)	> 100 µM (inactive)	> 100 µM (inactive)	> 100 µM (inactive)	> 100 µM (inactive)	> 100 µM (inactive)	> 100 µM (inactive)	> 100 µM (inactive)	> 100 µM (inactive)	> 100 µM (inactive)		> 100 µM (inactive)	> 100 µM (inactive)	> 100 µM (inactive)	> 100 µM (inactive)	> 100 µM (inactive)	> 100 µM (inactive)	> 100 µM (inactive)		61.1 µM (inactive)
CC1(C)N[PH]2(Nc3ccccc3O2)OC1=O	19.2 µM (inactive)	44.3 µM (inactive)	84.3 µM (inactive)	45.4 µM (inactive)	38.4 µM (inactive)		42.7 µM (inactive)	5.32 µM (inactive)	68.2 µM (inactive)	> 100 µM (inactive)	> 100 µM (inactive)	35.9 µM (inactive)	> 100 µM (inactive)	> 100 µM (inactive)	38.5 µM (inactive)	> 100 µM (inactive)	66.5 µM (inactive)	22.8 µM (inactive)		
COC(=O)C1=C(OC(=O)/C(=C/c2ccc(Cl)cc2)c2ccccc2)C(C(=O)OC)[C@@]2(O)[C@@H](C(=O)OC)[C@H](C)C[C@@H]1[C@@H]2C(=O)OC (stereo not given in full)		> 100 µM (inactive)	27.2 µM (inactive)	61.4 µM (inactive)	> 100 µM (inactive)	6 µM (inactive)	> 100 µM (inactive)	> 100 µM (inactive)	> 100 µM (inactive)	77.8 µM (inactive)	3.01 µM (inactive)	> 100 µM (inactive)	> 100 µM (inactive)	> 100 µM (inactive)	> 100 µM (inactive)	> 100 µM (inactive)	> 100 µM (inactive)	> 100 µM (inactive)	> 100 µM (inactive)	0.573 µM (active)
CCOC(=O)C(C(=S)Nc1ccccc1)c1nn2c(=O)cc(C)nc2s1 (stereo not given)		20.5 µM (inactive)	21.6 µM (inactive)	31.6 µM (inactive)	22.9 µM (inactive)	22.3 µM (inactive)	46.7 µM (inactive)	26.3 µM (inactive)	29.7 µM (inactive)	35.6 µM (inactive)	39.1 µM (inactive)	21.7 µM (inactive)	31.8 µM (inactive)	35.3 µM (inactive)	22.9 µM (inactive)	25.1 µM (inactive)	22.9 µM (inactive)	19.4 µM (inactive)	25.1 µM (inactive)	16.4 µM (inactive)
CC(C)[C@@H](C(=O)N1CCC[C@H]1C(=O)OCc1ccccc1)N(C)C(=O)[C@H](C(C)C)N(C)C(=O)[C@H](Cc1ccccc1)N(C)C(=O)[C@H](NC(=O)OC(C)(C)C)C(C)C (Boc-[dV][NMeF][NMeV][NMeV]P-OBn)		> 50 µM (inactive)	> 50 µM (inactive)	> 50 µM (inactive)		> 50 µM (inactive)	> 50 µM (inactive)	> 50 µM (inactive)	> 50 µM (inactive)	> 50 µM (inactive)	> 50 µM (inactive)	> 50 µM (inactive)	> 50 µM (inactive)	> 50 µM (inactive)	> 50 µM (inactive)	> 50 µM (inactive)	> 50 µM (inactive)	> 50 µM (inactive)	18.6 µM (inactive)	> 50 µM (inactive)
N#Cc1ccc(C(O)C(F)(F)c2nc3ccccc3o2)cc1 (stereo not given)		43.6 µM (inactive)	> 100 µM (inactive)	> 100 µM (inactive)			> 100 µM (inactive)	31.2 µM (inactive)	> 100 µM (inactive)	> 100 µM (inactive)	> 100 µM (inactive)	32.9 µM (inactive)	18.9 µM (inactive)		55.2 µM (inactive)	> 100 µM (inactive)	43.9 µM (inactive)	46.1 µM (inactive)	86.9 µM (inactive)	53.3 µM (inactive)
